The subject of assay [1] is SARS-CoV-2. The format is cell-based. The note with it: for reduction in plaque formation compared to DMSO treated infected control: 24 h pre-treatment, Vero E6, MOI 0.01, 4 days.
Assay [2] deals with SARS-CoV-2. The class given is cell-based. The following applies: for reduction in plaque formation compared to DMSO treated infected control: post-treatment after 1 hour infection, Vero E6, MOI 0.01, 4 days, FIG. 3.

Read-outs that look alike come from different tables or passages of the source.

The results in this text go back to US11903916B2, “Methods of using probenecid for treatment of coronavirus infections” (University of Georgia Research Foundation, Inc., priority 2020, dated 2024).

Regarding `CCCN(CCC)S(=O)(=O)c1ccc(C(=O)O)cc1` [Probenecid, 4-[(dipropylamino)sulfony1] benzoic acid], the viral titer/plaque formation entry in assay [1] (24 hour pretreatment at the concentrations tested) and in assay [2] (post-treatment at the concentrations tested) was “significantly reduces viral titer/plaque formation” each time. Also, the “reduction in plaque formation compared to DMSO treated infected control” value in assay [1] (probenecid 0.0001 μM, another experiment, FIG. 2) is approximately 50%; in assay [1] (probenecid 0.1 μM, FIG. 1), approximately 72%; in assay [2] (probenecid 0.0001 μM), approximately 40%; in assay [2] (probenecid 5 μM) it was approximately 90%.
